In patent publication US20220304916A1, “MODIFIED BLACK SOLDIER FLY LARVAE OIL WITH MODIFIED LAURIC ACID FOR TREATMENT AGAINST BIOFILM FORMATION AND MICROORGANISM GROWTH” (BIO-BEE SDE ELIYAHU LTD, priority 2019, published 2022):

Assays:
Format in all cases: cell-based
Candida albicans (CA) [1] = experiment: Planktonic growth, OD 595 nm after 24 h
Description: (§1) MBSFL oil (converted, 225, BioBee Sde Eliyahu Ltd, lot 0095-0098.181210-181227) was compared to BSFL oil (before conversion, 215, BioBee Sde Eliyahu Ltd, lot 0030.111217), lauric acid 98% (Sigma-Aldrich, denoted LA) and chlorhexidine acetate (Steinberg, denoted CHX), were analyzed as antimicrobial and anti-biofilm-formation agents in vitro, with respect to Pseudomonas aeruginosa (Gram negative, denoted PA01), Staphylococcus aureus (ATCC, American Type Culture Collection) (Gram positive, denoted SA), Streptococcus mutans (ATCC) (Gram positive, denoted SM), Lactobacillus (ATCC) (Gram positive, denoted L), Candida albicans (ATCC) (yeast, denoted CA) and Candida glabrata (ATCC) (yeast, denoted CG).
(§2) Microbial stocks of the Biofilm Research Laboratory were grown from frozen stock: SM at overnight 37° C. in BHI (brain heart infusion) broth medium in an atmosphere of 5% CO2; L at 37° C. in MRS (de Man, Rogosa and Sharpe) broth medium in an atmosphere of 5% CO2; PAO1 and SA at 37° C. in TSB (Trypticase soy broth) medium; CA and CG at 37° C. in RPMI (Roswell Park Memorial Institute) medium.
(§3) BSFL oil and MBSFL oil were prepared in DDW by heating at 100° C. LA was prepared at 50% Ethanol/50% DDW (doubly distillated water) and heated constantly to prevent solidifying in the tube. Maximum concentration of tested agents was the same (2.7% of lauric acid content). CHX was prepared in DDW
(§4) To examine the effects of MBSFL oil on microorganism's growth (planktonic conditions), serial 1:2 dilutions of each tested agent in appropriate medium (BSFL, MBSFL and LA from 2.7 to 0.04%; CHX from 20 μg/ml to 0.3 μg/ml) were prepared in a polystyrene flat-bottomed 96-well microplate. Wells with no compounds and those with bacteria served as positive controls. Wells with no bacteria and with compound served as blanks. An equal volume (100 μl) of the each tested bacterial and fungal suspension at optical density (OD)595=0.02 and 0.05, respectively, was added to each well. After a 24 h incubation, growth was monitored by recording the OD at 595 nm using a Genius plate reader Spectrophotometer (Tecan). The assay was performed in triplicates.

Candida glabrata (CG) [2] = experiment: Planktonic growth, OD 595 nm after 24 h
Description: as §1, §2, §3, §4

Lactobacillus (L) [3] = experiment: Planktonic growth, OD 595 nm after 24 h
Description: as §1, §2, §3, §4

[4] = tested on: Staphylococcus aureus (SA); experiment: Planktonic growth, OD 595 nm after 24 h
Description: as §1, §2, §3, §4

[5] = tested on: Streptococcus mutans (SM); experiment: Planktonic growth, OD 595 nm after 24 h
Description: as §1, §2, §3, §4

Lactobacillus (L) [6] = experiment: Viability on agar plates (MBC)
Description: as §1, §2, §3
(§5) To examine the effects of MBSFL oil on microorganism's viability, equal amounts (5 μl) of bacterial suspension exposed to each tested concentration of agent was plated on agar plates. Plates were incubated overnight at 37° C. Colony growth was recorded as non-affected by agent's viable bacteria. Minimal Bactericidal Concentration (MBC) was recorded as no colony growth. Minimal Fungicidal Concentration (MFC) was recorded as no fungal growth.

[7] = tested on: Pseudomonas aeruginosa (PAO1); experiment: Viability on agar plates (MBC)
Description: as §1, §2, §3, §5

[8] = tested on: Staphylococcus aureus (SA); experiment: Viability on agar plates (MBC)
Description: as §1, §2, §3, §5

[9] = tested on: Streptococcus mutans (SM); experiment: Viability on agar plates (MBC)
Description: as §1, §2, §3, §5

Candida albicans (CA) [10] = experiment: Viability on agar plates (MFC)
Description: as §1, §2, §3, §5

Candida glabrata (CG) [11] = experiment: Viability on agar plates (MFC)
Description: as §1, §2, §3, §5

Candida albicans (CA) [12] = experiment: Biofilm formation, crystal violet staining; settings: 24 h
Description: as §1, §2, §3
(§6) To examine the effects of MBSFL oil on biofilm formation by the microorganisms, assays for all of the tested agents were performed as described above except of growth medium used which was MRS/BHI supplemented with 1% sucrose and TSB/RPMI supplemented with 1% glucose. After incubation for 24 h, spent media and free-floating bacteria/fungi were removed by gentle aspiration and the wells were washed twice with phosphate-buffered saline (PBS, pH 7.4). The biofilm was then quantified by crystal violet staining. Briefly, 0.02% crystal violet was added into wells for 45 min, which were then washed twice with DDW to remove unbound dye. After adding 200 μl of 30% acetic acid into each well, the plate was shaken for 10 min to release the dye and the biofilm was quantified by measuring the absorbance at 595 nm using a Genius plate reader Spectrophotometer (Tecan). Assay was performed in triplicates.

Candida glabrata (CG) [13] = experiment: Biofilm formation, crystal violet staining
Description: as §1, §2, §3, §6

[14] = tested on: Pseudomonas aeruginosa (PAO1); experiment: Biofilm formation, crystal violet staining
Description: as §1, §2, §3, §6

[15] = tested on: Staphylococcus aureus (SA); experiment: Biofilm formation, crystal violet staining; settings: 24 h
Description: as §1, §2, §3, §6

[16] = tested on: Streptococcus mutans (SM); experiment: Biofilm formation, crystal violet staining; settings: 24 h
Description: as §1, §2, §3, §6

[17] = tested on: Pseudomonas aeruginosa (PAO1); experiment: Planktonic growth, OD 595 nm after 24 h
Description: as §1, §2, §3, §4

`CCCCCCCCCCCC(=O)O` [LA, lauric acid] gave an MIC (Candida albicans (CA) [1]) of 1.35%, an MIC (Candida glabrata (CG) [2]) of 2.7% and an MIC (Lactobacillus (L) [3]) of 0.33%. The “reduction of SA growth” value ([4]; lowest tested dose of 0.04%) was 90%, the MIC [5] was 0.33% and the MBC (Lactobacillus (L) [6]) was 0.67%. For the same molecule, the “Minimal Bactericidal Concentration (MBC)” value [7] was “exerted MBC/MFC for all tested microbes, except PAO1”, the MBC [8] was 0.67% and the MBC [9] was 0.33%. For the same molecule, the “Minimal Fungicidal Concentration (MFC)” value (Candida albicans (CA) [10]) was 2.7%, the MFC (Candida glabrata (CG) [11]) was 2.7% and the “dose at which biofilm formation was almost totally inhibited” value (Candida albicans (CA) [12]) was 0.67%. The “effect on biofilm formation (in words)” value (Candida glabrata (CG) [13]) was “effective against biofilm formation of CG but with less impact”, the “effect on biofilm formation (in words)” value ([14]; all concentrations tested) was “dose-dependently increased biomass” and the “dose at which biofilm formation was totally or almost totally inhibited” value [15] was 0.67%. The “dose of total inhibition of biofilm formation” value [16] was 0.16%.

With `CC(=O)O.CC(=O)O.NC(=N\CCCCCC/N=C(N)/N=C(\N)Nc1ccc(Cl)cc1)/N=C(\N)Nc1ccc(Cl)cc1` [CHX, chlorhexidine acetate] the “dose inhibiting growth of CA” value (Candida albicans (CA) [1]) was 5 µg/mL, the “dose inhibiting growth of CG” value (Candida glabrata (CG) [2]) was 2.5 µg/mL and the MIC (Lactobacillus (L) [3]) was 2.5 µg/mL. For the same molecule, the “dose of total inhibition of PAO1 growth” value [17] was 10 µg/mL, the “dose inhibiting growth of SA” value ([4]; planktonic, 24 h) was 2.5 µg/mL and the “dose inhibiting growth of SM” value [5] was 0.625 µg/mL. The MBC (Lactobacillus (L) [6]) was 2.5 µg/mL, the MBC [7] was 20 µg/mL and the MBC [8] was 10 µg/mL. For the same molecule, the MBC [9] was 0.625 µg/mL, the MFC (Candida albicans (CA) [10]) was 5 µg/mL and the MFC (Candida glabrata (CG) [11]) was 2.5 µg/mL. The “dose inhibiting biofilm formation” value (Candida albicans (CA) [12]) was 5 µg/mL, the “dose inhibiting biofilm formation” value (Candida glabrata (CG) [13]; 24 h) was 2.5 µg/mL and the “dose of total inhibition of biofilm formation” value ([14]; PAO1 biofilm, 24 h) was 10 µg/mL. For the same molecule, the “dose inhibiting biofilm formation” value [15] was 2.5 µg/mL and the “dose inhibiting biofilm formation” value [16] was 0.625 µg/mL.
